Laboratory results taken from patent US20110178070A1, “PI3K/mTOR INHIBITORS” (TAKEDA PHARMACEUTICAL COMPANY LIMITED, priority 2008, published 2011).

target: mTOR (Homo sapiens, UniProt P42345); test: Z-Lyte biochemical assay, inhibition of mTOR (Example A); conditions: IC50 (nM) mTOR, Table 1; 10 μM ATP;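 note: synthetic Ser/Thr peptide with coumarin–fluorescein FRET pair, phosphorylation protects from protease cleavage, coumarin/fluorescein emission ratio after 400 nm excitation, 1 h kinase reaction, 10-point 3-fold titrations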
Sequence (P42345 1360-2549): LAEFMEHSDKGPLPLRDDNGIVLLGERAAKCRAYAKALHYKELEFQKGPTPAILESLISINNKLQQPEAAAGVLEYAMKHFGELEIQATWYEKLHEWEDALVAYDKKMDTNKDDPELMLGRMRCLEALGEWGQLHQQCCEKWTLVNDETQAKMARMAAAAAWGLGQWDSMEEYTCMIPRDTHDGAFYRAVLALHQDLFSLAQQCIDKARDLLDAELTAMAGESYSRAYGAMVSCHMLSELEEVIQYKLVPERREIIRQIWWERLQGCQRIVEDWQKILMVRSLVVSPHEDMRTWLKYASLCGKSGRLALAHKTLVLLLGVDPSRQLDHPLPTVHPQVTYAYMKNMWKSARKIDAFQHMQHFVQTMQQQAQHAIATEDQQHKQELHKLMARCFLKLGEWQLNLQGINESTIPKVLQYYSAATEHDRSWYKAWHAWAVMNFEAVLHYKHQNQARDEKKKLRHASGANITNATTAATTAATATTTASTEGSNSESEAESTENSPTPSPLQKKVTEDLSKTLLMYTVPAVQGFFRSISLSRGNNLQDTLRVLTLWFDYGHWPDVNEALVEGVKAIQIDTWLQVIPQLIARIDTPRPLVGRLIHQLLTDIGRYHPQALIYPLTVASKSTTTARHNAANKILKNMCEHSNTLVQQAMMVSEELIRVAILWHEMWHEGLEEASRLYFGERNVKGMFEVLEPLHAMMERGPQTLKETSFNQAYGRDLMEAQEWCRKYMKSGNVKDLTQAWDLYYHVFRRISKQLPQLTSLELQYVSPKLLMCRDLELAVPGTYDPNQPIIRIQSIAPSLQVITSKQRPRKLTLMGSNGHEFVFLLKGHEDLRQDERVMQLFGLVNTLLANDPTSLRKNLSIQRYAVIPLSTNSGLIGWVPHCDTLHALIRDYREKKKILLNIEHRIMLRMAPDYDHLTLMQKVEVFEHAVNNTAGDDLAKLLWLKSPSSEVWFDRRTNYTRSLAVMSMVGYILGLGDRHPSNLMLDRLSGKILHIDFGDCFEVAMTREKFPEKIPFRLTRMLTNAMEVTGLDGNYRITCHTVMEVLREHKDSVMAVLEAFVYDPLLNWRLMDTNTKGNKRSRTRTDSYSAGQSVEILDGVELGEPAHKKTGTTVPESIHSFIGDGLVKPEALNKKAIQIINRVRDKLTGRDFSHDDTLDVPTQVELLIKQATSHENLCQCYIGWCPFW
Experimental: The inhibitory property of a compound relative to mTOR catalysis was determined by using the Z-Lyte™ biochemical assay conducted by Invitrogen Corporation (Madison, Wis.), which employs a fluorescence-based, coupled-enzyme format and is based on the differential sensitivity of phosphorylated and non-phosphorylated peptides to proteolytic cleavage. The peptide substrate is labeled with two fluorophores—one at each end—that make up a FRET pair.
In the primary reaction, the kinase transfers the gamma-phosphate of ATP to a single tyrosine, serine or threonine residue in a synthetic FRET-peptide. In the secondary reaction, a site-specific protease recognizes and cleaves non-phosphorylated FRET-peptides. Phosphorylation of FRET-peptides suppresses cleavage by the Development Reagent. Cleavage disrupts FRET between the donor (i.e., coumarin) and acceptor (i.e., fluorescein) fluorophores on the FRET-peptide, whereas uncleaved, phosphorylated FRET-peptides maintain FRET. A ratio metric method, which calculates the ratio (the Emission Ratio) of donor emission to acceptor emission after excitation of the donor fluorophore at 400 nm, is used to quantitate reaction progress, as shown in the equation below.
A significant benefit of this ratio metric method for quantitating reaction progress is the elimination of well-to-well variations in FRET-peptide concentration and signal intensities. […] Both cleaved and uncleaved FRET-peptides contribute to the fluorescence signals and therefore to the Emission Ratio. The extent of phosphorylation of the FRET-peptide can be calculated from the Emission Ratio.
Recombinant human mTOR enzyme (amino acids 1360-2549), GST-tagged, expressed in and purified from insect cells (Invitrogen Corp. Cat. #PV4753; also known as FRAP1) was used for the assay. The 2×FRAP1 (mTOR)/Ser/Thr 11 Peptide Mixture (Invitrogen Corp.) was prepared in buffer containing 50 mM HEPES pH 7.5, 0.01% BRIJ-35, 10 mM MnCl2, 1 mM EGTA, 2 mM DTT, and 0.02% NaN3. The final 10 μL Kinase Reaction consisted of 7.2-58.1 ng FRAP1 (mTOR) and 2 μM Ser/Thr 11 Peptide in buffer containing 50 mM HEPES pH 7.5, 0.01% BRIJ-35, 5 mM MgCl2, 5 mM MnCl2, 1 mM EGTA, 1 mM DTT, and 0.01% NaN3.
Test compounds are screened in 1% DMSO (final) in the well. For 10 point titrations, 3-fold serial dilutions are conducted from the starting concentration. The Ser/Thr 11 Peptide/Kinase Mixture was diluted to a 2× working concentration in buffer containing 50 mM HEPES pH 7.5, 0.01% BRIJ-35, 10 mM MnCl2, 1 mM EGTA, 2 mM DTT, and 0.02% NaN3. The ATP solution was diluted to a 4× working concentration in buffer containing 50 mM HEPES pH 7.5, 0.01% BRIJ-35, 10 mM MgCl2, and 1 mM EGTA.
After the 1 hour Kinase Reaction incubation, 5 μL of a 1:16 dilution of Development Reagent B was added, and the development reaction was allowed to proceed for an additional 1 hour at room temperature. The assay plate was then read on a fluorescence plate reader and the data analyzed as outlined above.
IC50 values were calculated by non-linear least squares curve fitting using XLfit from IDBS to fit the results to model number 205 (sigmoidal dose-response model).

| IC50 | SMILES |
| --- | --- |
| < 100 nM | CCS(=O)(=O)Nc1cc(-c2ccc3nc(NC(C)=O)sc3n2)cnc1Cl [Example 47, N-(5-(6-Chloro-5-(ethylsulfonamido)pyridin-3-yl)thiazolo[5,4-b]pyridin-2-yl)acetamide] |
| > 1000 nM | CC(=O)Nc1nc2ccc(-c3ccccc3N)nc2s1 [Example 34, N-(5-(2-Aminophenyl)thiazolo[5,4-b]pyridin-2-yl)acetamide] |
| < 100 nM | CC(=O)Nc1nc2ccc(-c3cnc(Cl)c(NS(C)(=O)=O)c3)nc2s1 [Example 8, N-(5-(6-Chloro-5-(methylsulfonamido)pyridin-3-yl)thiazolo[5,4-b]pyridin-2-yl)acetamide] |
| > 1000 nM | CONC(=O)c1cccc(-c2ccc3nc(NC(C)=O)sc3n2)c1 [Example 27, 3-(2-Acetamidothiazolo[5,4-b]pyridin-5-yl)-N-methoxybenzamide] |
| 100 to 1000 nM | CC(=O)Nc1nc2ccc(-c3ccc(C(=O)NC4CC4)cc3)nc2s1 [Example 37, 4-(2-Acetamidothiazolo[5,4-b]pyridin-5-yl)-N-cyclopropylbenzamide] |
| > 1000 nM | CC(=O)Nc1nc2ccc(-c3ccc4[nH]ccc4c3)cc2s1 [Example 12, N-(6-(1H-Indol-5-yl)benzo[d]thiazol-2-yl)acetamide] |
| 100 to 1000 nM | CC(=O)Nc1nc2ccc(-c3ccc4[nH]ccc4c3)nc2s1 [Example 2, N-(5-(1H-Indol-5-yl)thiazolo[5,4-b]pyridin-2-yl)acetamide] |
| < 100 nM | CC(=O)Nc1nc2ccc(-c3ccc(-c4nnc[nH]4)cc3)nc2s1 [Example 42, N-(5-(4-(4H-1,2,4-Triazol-3-yl)phenyl)thiazolo[5,4-b]pyridin-2-yl)acetamide] |
| < 100 nM | CC(=O)Nc1nc2ccc(-c3cnc(Cl)c(NS(C)(=O)=O)c3)cc2s1 [Example 48, N-(6-(6-Chloro-5-(methylsulfonamido)pyridin-3-yl)benzo[d]thiazol-2-yl)acetamide] |
| 100 to 1000 nM | CC(=O)Nc1nc2ccc(-c3ccc4[nH]ncc4c3)nc2s1 [Example 3, N-(5-(1H-Indazol-5-yl)thiazolo[5,4-b]pyridin-2-yl)acetamide] |
| < 100 nM | CC(=O)Nc1nc2ccc(-c3cnc(Cl)c(NS(=O)(=O)c4ccccc4)c3)cc2s1 [Example 18, N-(6-(6-Chloro-5-(phenylsulfonamido)pyridin-3-yl)benzo[d]thiazol-2-yl)acetamide] |
| < 100 nM | CC(=O)Nc1nc2ccc(-c3ccc(C(N)=O)cc3)nc2s1 [Example 38, 4-(2-Acetamidothiazolo[5,4-b]pyridin-5-yl)benzamide] |
| > 1000 nM | CC(=O)Nc1nc2ccc(-c3ccc4[nH]cc(C(N)=O)c4c3)cc2s1 [Example 17, 5-(2-Acetamidobenzo[d]thiazol-6-yl)-1H-indole-3-carboxamide] |
| 100 to 1000 nM | CC(=O)Nc1nc2ccc(-c3ccc4c(c3)CC(=O)N4)nc2s1 [Example 31, N-(5-(2-oxoindolin-5-yl)thiazolo[5,4-b]pyridin-2-yl)acetamide] |
| 100 to 1000 nM | CC(=O)Nc1ccc(-c2ccc3nc(NC(C)=O)sc3n2)cn1 [Example 4, N-(5-(6-Acetamidopyridin-3-yl)thiazolo[5,4-b]pyridin-2-yl)acetamide] |
| 100 to 1000 nM | CONC(=O)c1ccc(-c2ccc3nc(NC(C)=O)sc3n2)cc1 [Example 30, 4-(2-Acetamidothiazolo[5,4-b]pyridin-5-yl)-N-methoxybenzamide] |
| 100 to 1000 nM | CC(=O)Nc1nc2ccc(-c3cccnc3)cc2s1 [Example 11, N-(6-(Pyridin-3-yl)benzo[d]thiazol-2-yl)acetamide] |
| 100 to 1000 nM | CC(=O)Nc1ccc(-c2ccc3nc(NC(C)=O)sc3n2)cc1 [Example 36, N-(5-(4-Acetamidophenyl)thiazolo[5,4-b]pyridin-2-yl)acetamide] |
| 100 to 1000 nM | CC(=O)Nc1nc2ccc(-c3ccc4nccn4c3)nc2s1 [Example 22, N-(5-(Imidazo[1,2-a]pyridin-6-yl)thiazolo[5,4-b]pyridin-2-yl)acetamide] |
| > 1000 nM | CNC(=O)c1cccc(-c2ccc3nc(NC(C)=O)sc3c2)c1 [Example 40, 3-(2-Acetamidobenzo[d]thiazol-6-yl)-N-methylbenzamide] |
